Structures are written as SMILES.

In one test the test system is A549. Put plainly: Cytotoxicity against human A549 cells by MTT assay. Format: functional, cell-based. For orientation: Tetrazolium dyes change colour on reduction, which living cells bring about.
As to `CC[C@@]1(O)C(=O)OCc2c1cc1n(c2=O)Cc2cc3ccccc3nc2-1` [CAMPTOTHECIN], half-maximal inhibition (IC50) was put at 700 nM.
Same read-out and setting: next, `COC(=O)[C@@]1(C)CCC[C@@]2(C)[C@H]1C[C@H](O)[C@H]1[C@@H](C)/C(=C/C(=O)OCCN(C)C)CC[C@@H]12`: 3100 nM.
On to `CNCCOC(=O)/C=C1\CC[C@H]2[C@@H]([C@@H](O)C(=O)[C@@H]3[C@]2(C)CCC[C@]3(C)C(=O)OC)[C@H]1C`, for which the half-inhibitory concentration (IC50) (in general, the midpoint of a concentration-inhibition curve) stood at 900 nM.
Same read-out and setting: for `C/C=C(\C)C(=O)O[C@H]1CC[C@@]2(C)[C@@H](C(=O)[C@H](O)[C@H]3[C@@H](C)/C(=C/C(=O)OCCNC)CC[C@@H]32)[C@@]1(C)C(=O)OC` the value was 1400 nM.

The subject of a further test is NCI-H1975. Description: Cytotoxicity against human NCI-H1975 cells by MTT assay. Format: functional, cell-based.
As for `CC[C@@]1(O)C(=O)OCc2c1cc1n(c2=O)Cc2cc3ccccc3nc2-1` [CAMPTOTHECIN], the concentration for half-maximal inhibition (IC50) stood at 1200 nM.
Still for that read-out and setting: for `COC(=O)[C@@]1(C)CCC[C@@]2(C)[C@H]1C[C@H](O)[C@H]1[C@@H](C)/C(=C/C(=O)OCCN(C)C)CC[C@@H]12` the value was 2600 nM; for `CNCCOC(=O)/C=C1\CC[C@H]2[C@@H]([C@@H](O)C(=O)[C@@H]3[C@]2(C)CCC[C@]3(C)C(=O)OC)[C@H]1C`, 1000 nM; for `C/C=C(\C)C(=O)O[C@H]1CC[C@@]2(C)[C@@H](C(=O)[C@H](O)[C@H]3[C@@H](C)/C(=C/C(=O)OCCNC)CC[C@@H]32)[C@@]1(C)C(=O)OC`, 1100 nM.

The subject of another test is NCI-H1299. Description: Cytotoxicity against human NCI-H1299 cells by MTT assay. It counts as functional, cell-based.
Take `CC[C@@]1(O)C(=O)OCc2c1cc1n(c2=O)Cc2cc3ccccc3nc2-1` [CAMPTOTHECIN]: the IC50 is 800 nM.
Still for that read-out and setting: for `COC(=O)[C@@]1(C)CCC[C@@]2(C)[C@H]1C[C@H](O)[C@H]1[C@@H](C)/C(=C/C(=O)OCCN(C)C)CC[C@@H]12` the value was 2400 nM; for `CNCCOC(=O)/C=C1\CC[C@H]2[C@@H]([C@@H](O)C(=O)[C@@H]3[C@]2(C)CCC[C@]3(C)C(=O)OC)[C@H]1C`, 1200 nM.
The same measure, in the same setting: for `C/C=C(\C)C(=O)O[C@H]1CC[C@@]2(C)[C@@H](C(=O)[C@H](O)[C@H]3[C@@H](C)/C(=C/C(=O)OCCNC)CC[C@@H]32)[C@@]1(C)C(=O)OC` the value was 1200 nM.

The next test has as its system A549. Put plainly: Induction of apoptosis in human A549 cells assessed as early apoptotic cells at 0.3 uM after 48 hrs by Annexin-V-FITC/propidium iodide staining based flow cytometric method (reference value: 1.04 to 2.73%). Format: functional.
Consider `CC[C@@]1(O)C(=O)OCc2c1cc1n(c2=O)Cc2cc3ccccc3nc2-1` [CAMPTOTHECIN], for which the Activity was found to be 20.33%.

The next test deals with A549. Description: Induction of apoptosis in human A549 cells assessed as late apoptotic cells at 0.3 uM after 48 hrs by Annexin-V-FITC/propidium iodide staining based flow cytometric method (reference value: 3.4 to 4.76%). It counts as functional. (In general: Flow cytometry measures light scatter and fluorescence of single cells or particles in a stream.)
On to `CC[C@@]1(O)C(=O)OCc2c1cc1n(c2=O)Cc2cc3ccccc3nc2-1` [CAMPTOTHECIN], for which the Activity is listed as 14.14%.

Another test concerns NCI-H1975. Description: Induction of apoptosis in human NCI-H1975 cells assessed as early apoptotic cells at 0.3 uM after 48 hrs by Annexin-V-FITC/propidium iodide staining based flow cytometric method (reference value: 2.5 to 3.56%). Format: functional.
For the molecule `CC[C@@]1(O)C(=O)OCc2c1cc1n(c2=O)Cc2cc3ccccc3nc2-1` [CAMPTOTHECIN], the Activity is listed as 7.9%.

The test system of the next test is NCI-H1975. Description: Induction of apoptosis in human NCI-H1975 cells assessed as late apoptotic cells at 0.3 uM after 48 hrs by Annexin-V-FITC/propidium iodide staining based flow cytometric method (reference value: 2.92 to 4.29%). It counts as functional.
For the molecule `CC[C@@]1(O)C(=O)OCc2c1cc1n(c2=O)Cc2cc3ccccc3nc2-1` [CAMPTOTHECIN], the Activity is given as 31.47%.

The next test concerns NCI-H1299. Put plainly: Induction of apoptosis in human NCI-H1299 cells assessed as early apoptotic cells at 0.3 uM after 48 hrs by Annexin-V-FITC/propidium iodide staining based flow cytometric method (reference value: 1.91%). It counts as functional.
For `CC[C@@]1(O)C(=O)OCc2c1cc1n(c2=O)Cc2cc3ccccc3nc2-1` [CAMPTOTHECIN], the Activity amounted to 13.16%.

For a further test, the system named is NCI-H1299. Put plainly: Induction of apoptosis in human NCI-H1299 cells assessed as late apoptotic cells at 0.3 uM after 48 hrs by Annexin-V-FITC/propidium iodide staining based flow cytometric method (reference value: 2.69%). Format: functional.
Regarding `CC[C@@]1(O)C(=O)OCc2c1cc1n(c2=O)Cc2cc3ccccc3nc2-1` [CAMPTOTHECIN], the Activity was found to be 9.44%.

The next test has as its system A549. Description: Induction of apoptosis in human A549 cells assessed as early apoptotic cells at 0.1 uM after 48 hrs by Annexin-V-FITC/propidium iodide staining based flow cytometric method (reference value: 1.04 to 2.73%). Format: functional.
Take `CC[C@@]1(O)C(=O)OCc2c1cc1n(c2=O)Cc2cc3ccccc3nc2-1` [CAMPTOTHECIN]: the Activity amounted to 14.17%.

A further test concerns A549. Put plainly: Induction of apoptosis in human A549 cells assessed as late apoptotic cells at 0.1 uM after 48 hrs by Annexin-V-FITC/propidium iodide staining based flow cytometric method (reference value: 3.4 to 4.76%). It counts as functional.
With `CC[C@@]1(O)C(=O)OCc2c1cc1n(c2=O)Cc2cc3ccccc3nc2-1` [CAMPTOTHECIN], the Activity was 10.25%.

In another test the test system is NCI-H1975. Description: Induction of apoptosis in human NCI-H1975 cells assessed as early apoptotic cells at 0.1 uM after 48 hrs by Annexin-V-FITC/propidium iodide staining based flow cytometric method (reference value: 2.5 to 3.56%). It counts as functional.
Regarding `CC[C@@]1(O)C(=O)OCc2c1cc1n(c2=O)Cc2cc3ccccc3nc2-1` [CAMPTOTHECIN], the Activity is 5.54%.

The subject of another test is NCI-H1975. Put plainly: Induction of apoptosis in human NCI-H1975 cells assessed as late apoptotic cells at 0.1 uM after 48 hrs by Annexin-V-FITC/propidium iodide staining based flow cytometric method (reference value: 2.92 to 4.29%). Format: functional.
Consider `CC[C@@]1(O)C(=O)OCc2c1cc1n(c2=O)Cc2cc3ccccc3nc2-1` [CAMPTOTHECIN], for which the Activity is 6.73%.

In another test the test system is NCI-H1299. Description: Induction of apoptosis in human NCI-H1299 cells assessed as early apoptotic cells at 0.1 uM after 48 hrs by Annexin-V-FITC/propidium iodide staining based flow cytometric method (reference value: 1.91%). Format: functional.
With `CC[C@@]1(O)C(=O)OCc2c1cc1n(c2=O)Cc2cc3ccccc3nc2-1` [CAMPTOTHECIN], the Activity is reported as 13.04%.

A further test deals with NCI-H1299. Description: Induction of apoptosis in human NCI-H1299 cells assessed as late apoptotic cells at 0.1 uM after 48 hrs by Annexin-V-FITC/propidium iodide staining based flow cytometric method (reference value: 2.69%). It counts as functional.
For the molecule `CC[C@@]1(O)C(=O)OCc2c1cc1n(c2=O)Cc2cc3ccccc3nc2-1` [CAMPTOTHECIN], the Activity is on record as 5.22%.

A further test has as its system A549. Description: Induction of apoptosis in human A549 cells after 48 hrs by Annexin-V-FITC/propidium iodide staining based flow cytometric method. Format: functional, cell-based.
`CC[C@@]1(O)C(=O)OCc2c1cc1n(c2=O)Cc2cc3ccccc3nc2-1` [CAMPTOTHECIN]: the Activity result is “Dose-dependent effect”.

In another test the test system is NCI-H1975. Put plainly: Induction of apoptosis in human NCI-H1975 cells after 48 hrs by Annexin-V-FITC/propidium iodide staining based flow cytometric method. It counts as functional, cell-based.
For `CC[C@@]1(O)C(=O)OCc2c1cc1n(c2=O)Cc2cc3ccccc3nc2-1` [CAMPTOTHECIN], the Activity result was “Dose-dependent effect”.

Another test deals with NCI-H1299. Description: Induction of apoptosis in human NCI-H1299 cells after 48 hrs by Annexin-V-FITC/propidium iodide staining based flow cytometric method. Format: functional, cell-based.
In the case of `CC[C@@]1(O)C(=O)OCc2c1cc1n(c2=O)Cc2cc3ccccc3nc2-1` [CAMPTOTHECIN], the Activity entry is “Dose-dependent effect”.

The values above are taken from ChEMBL document CHEMBL4020777, “Cytotoxic and apoptosis-inducing activities against human lung cancer cell lines of cassaine diterpenoids from the bark of Erythrophleum fordii” (Bioorg Med Chem Lett, 2017).
